Common to all, as to type: cell-based
In assay [1] the test system is SW480 colon cancer cells. Put plainly: Cell viability assay (CellTiter-Blue). The conditions noted are these: Homo sapiens, 96 h, four days; for inhibition at 10 µM: given for EC50 >10 μM, read-out: percent inhibition at 10 μM. Here is the method:
Representative compounds were screened using the following assay procedure to assess the effect on cell viability as described below.
Each compound was dissolved in DMSO as a 10 mM stock and used to prepare compound source plates. Serial dilution (1:3, 8-point dose-response curves from 10 μM to 0.0045 μM) and compound transfer was performed using the ECHO 550 (Labcyte, Sunnyvale, Calif.) into 96-well clear bottom, black-walled plates (Corning-Costar).
Approximately 2×10^3 SW480 colon cancer cells were seeded into each well and allowed to incubate in the presence or absence of compound for four days at 37° C./5% CO2. Eight replicates of DMSO-treated cells served as controls and cells treated with compound were performed in duplicate.
After incubation, 20 μL of CellTiter-Blue (Promega) was added to each well allowed to incubate for approximately 3 hours. This reagent was a buffered solution which contains resazurin, metabolically active cells were able to reduce rezarurin (blue) into resorufin (pink) which was highly fluorescent. This measured fluorescence was used as a readout for cell viability.
After incubation, the plates were read at Ex 560 nm Em 590 nm (Cytation 3, BioTek). Dose-response curves were generated and EC50 concentration values were calculated using non-linear regression curve fit in the GraphPad Prism (San Diego, Calif.) or Dotmatics' Studies Software (Bishops Stortford, UK). For EC50 of >10 μM, the percent inhibition at 10 μM is provided.

Assay [2] concerns primary human fibroblasts derived from IPF patients (LL29 cells). Put plainly: Inhibition of fibrotic process, αSMA staining in TGF-β1 treated LL29 fibroblasts. The following applies: Fibroblast, 96 h, TGF-β1 20 ng/mL, 4 days; for EC50: % αSMA positive cells; for inhibition at 10 µM: given for EC50 >10 μM, read-out: percent inhibition at 10 μM. An excerpt:
Representative compounds were screened using primary human fibroblasts (derived from IPF patients) treated with TGF-β1 to determine their ability to inhibit the fibrotic process.
Primary human fibroblasts derived from IPF patients (LL29 cells) [^1Xiaoqiu Liu, et. al., “Fibrotic Lung Fibroblasts Show Blunted Inhibition by cAMP Due to Deficient cAMP Response Element-Binding Protein Phosphorylation”, Journal of Pharmacology and Experimental Therapeutics (2005), 315(2), 678-687; ^2Watts, K. L., et. al., “RhoA signaling modulates cyclin D1 expression in human lung fibroblasts; implications for idiopathic pulmonary fibrosis”, Respiratory Research (2006), 7(1), 88] were obtained from American Type Culture Collection (ATCC) and expanded in F12 medium supplemented with 15% Fetal Bovine Serum and Penicillin/Streptomycin.
Each compound was dissolved in DMSO as a 10 mM stock and used to prepare compound source plates. Serial dilution (1:2, 11-point dose-response curves from […] to […]) and compound transfer was performed using the ECHO 550 (Labcyte, Sunnyvale, Calif.) into 384-well clear bottom assay plates (Greiner Bio-One) with appropriate DMSO backfill for a final DMSO concentration of 0.1%. LL29 cells are plated at 1,500 cells/well in 80 μL/well F12 medium supplemented with 1% Fetal Bovine Serum. One hour after addition of the cells, TGF-β1 (Peprotech; 20 ng/mL) was added to the plates to induce fibrosis (ref. 1 and 2 above). Wells treated with TGF-β1 and containing DMSO were used as controls. Cells were incubated at 37° C. and 5% CO2 for 4 days. Following incubation for 4 days, SYTOX green nucleic acid stain (Life Technologies [Thermo Fisher Scientific]) was added to the wells at a final concentration of 1 μM and incubated at room temperature for 30 min. Cells were then fixed using 4% formaldehyde (Electron Microscopy Sciences), washed 3 times with PBS followed by blocking and permeabilization using 3% Bovine Serum Albumin (BSA; Sigma) and 0.3% Triton X-100 (Sigma) in PBS. Cells were then stained with antibody specific to α-smooth muscle actin (αSMA; Abcam) (ref. 1 and 2 above) in 3% Bovine Serum Albumin (BSA; Sigma) and 0.3% Triton X-100 (Sigma) in PBS, and incubated overnight at 4° C. Cells were then washed 3 times with PBS, followed by incubation with Alexa Flor-647 conjugated secondary antibody (Life Technologies [Thermo Fisher Scientific]) and DAPI at room temperature for 1 hour. Cells were then washed 3 times with PBS and plates were sealed for imaging. αSMA staining was imaged by excitation at 630 nm and emission at 665 nm and quantified using the Compartmental Analysis program on the CellInsight CX5 (Thermo Scientific). Dead or apoptotic cells were excluded from analysis based on positive SYTOX green staining. % of total cells positive for αSMA were counted in each well and normalized to the average of 11 wells treated with TGF-β1 on the same plate using Dotmatics' Studies Software. The normalized averages (fold change over untreated) of 3 replicate wells for each compound concentration were used to create dose-responses curves and EC50 values were calculated using non-linear regression curve fit in the Dotmatics' Studies Software. For EC50 of >10 μM, the percent inhibition at 10 μM is provided.

For assay [3], the system named is IL-6 (THP-1 human monocyte cell line). Put plainly: IL-6 inhibition in LPS-stimulated THP-1 cells (HTRF). The following applies: LPS 500 ng/mL; for EC50: 22 hours, IL6 HTRF; for inhibition at 10 µM: given for EC50 >10 μM, read-out: percent inhibition at 10 μM. The protocol: Human monocyte cell line (THP-1 cells; Catalog # TIB-202, ATCC, Manassas, Va.) were cultured in Roswell Park Memorial Institute (RPMI) 1640 Medium (Catalog #21870-100, Buffalo, N.Y.) with 1% L-glutamine, 1% HEPES, 1% Sodium Pyruvate, 2% Sodium Bicarbonate supplemented with 100 units/mL penicillin, 50 μg/mL streptomycin, 2-mercaptoethanol (0.05 mM) [basal medium] and 10% fetal bovine serum (Catalog #16140089, Life Technologies, Carlsbad, Calif.) at 37° C. and 5% CO2.
THP-1 cells were cultured in basal media with 1% FBS for 24 hours before the start of the assay. Each compound was dissolved in DMSO as a 10 mM stock and used to prepare compound source plates. Serial dilution (1:3, 10-point dose-response curves starting from […]) and compound transfer was performed using the ECHO 550 (Labcyte, Sunnyvale, Calif.) into 384-well white low volume assay plates (Greiner Bio-One) with appropriate DMSO backfill for a final DMSO concentration of 0.1%. THP-1 cells were plated at 5000 cells/well in the 384-well plates and incubated at 37° C. for 2 h. 500 ng/mL of LPS was added after 2 hours and cells were incubated for another 22 hours at 37° C. Plates were spun in a centrifuge for 1 minute at 10,000 rpm and a mixture of anti-IL6 XL665, and anti-IL6 Cryptate diluted in reconstitution buffer (Cisbio Inc.) was added to each well. Following incubation for 3 hrs at room temperature, Homogeneous Time-Resolved Fluorescence (HTRF) was measured using the Envision (Perkin Elmer) at 665 nm and […]. The ratio of fluorescence at 665 nm to 620 nm was used as a readout for IL6 quantification. All samples were processed in duplicate. Readings were normalized to DMSO treated cells and normalized activities were utilized for EC50 calculations using the dose-response log (inhibitor) vs. response—variable slope (four parameters) nonlinear regression feature available in GraphPad Prism 5.0 (or Dotmatics). For EC50 of >10 μM, the percent inhibition at 10 μM is provided.

Structures are written as SMILES. Some results are limits rather than exact numbers.

On to `CCC(=O)Nc1cncc(-c2cnc3[nH]nc(-c4cc5c(-c6cccc(F)c6)ccnc5[nH]4)c3c2)c1` [Compound 1, N-(5-(3-(4-(3-Fluorophenyl)-1H-pyrrolo[2,3-b]pyridin-2-yl)-1H-pyrazolo [3,4-b]pyridin-5-yl)pyridin-3-yl)propionamide], for which the EC50 in assay [1], in assay [2] and in assay [3] was > 10 µM throughout. Further, the figures for the inhibition at 10 µM in assay [1], in assay [2] and in assay [3] were 9.8%, 0% and 23.8%, respectively.

In the case of `Fc1cccc(-c2ccnc3[nH]c(-c4n[nH]c5ncc(-c6cncc(OCc7ccccc7)c6)cc45)cc23)c1` [Compound 518, 5-(5-(Benzyloxy)pyridin-3-yl)-3-(4-(3-fluorophenyl)-1H-pyrrolo[2,3-b]pyridin-2-yl)-1H-pyrazolo[3,4-b]pyridine], the EC50 in assay [1], in assay [2] and in assay [3] was > 10 µM throughout. Besides, the inhibition at 10 µM came out at 16.3% in assay [1], 0% in assay [2] and 6.3% in assay [3].

For `CC(C)Nc1cncc(-c2cnc3[nH]nc(-c4cc5c(-c6cccnc6)ccnc5[nH]4)c3c2)c1` [Compound 96, N-Isopropyl-5-(3-(4-(pyridin-3-yl)-1H-pyrrolo[2,3-b]pyridin-2-yl)-1H-pyrazolo[3,4-b]pyridin-5-yl)pyridin-3-amine], the EC50 in assay [1] was > 10 µM; in assay [2], 1.56 µM; in assay [3], 0.094 µM. For the same compound, in assay [1], the inhibition at 10 µM came to 14.3%.

As for `CCCCC(=O)Nc1cncc(-c2cnc3[nH]nc(-c4cc5c(-c6ccccc6F)ccnc5[nH]4)c3c2)c1` [Compound 75, N-(5-(3-(4-(2-Fluorophenyl)-1H-pyrrolo[2,3-b]pyridin-2-yl)-1H-pyrazolo [3,4-b]pyridin-5-yl)pyridin-3-yl)pentanamide], the EC50 in assay [1], in assay [2] and in assay [3] was > 10 µM throughout. Moreover, the inhibition at 10 µM in assay [1] came out at 23.6%; in assay [2], 0%; in assay [3] it was 33.8%.

As for `CCC(=O)Nc1cncc(-c2cnc3[nH]nc(-c4cc5c(N6CCCCC6)ccnc5[nH]4)c3c2)c1` [Compound 169, N-(5-(3-(4-(Piperidin-1-yl)-1H-pyrrolo[2,3-b]pyridin-2-yl)-1H-pyrazolo[3,4-b]pyridin-5-yl)pyridin-3-yl)propionamide], the EC50 in assay [1] was > 10 µM; in assay [2] it was 2.98 µM; in assay [3], 4.81 µM. Also, in assay [1], the inhibition at 10 µM is 36.1%.

`c1cncc(-c2cnc3[nH]nc(-c4cc5cccnc5[nH]4)c3c2)c1` [Compound 256, 5-(Pyridin-3-yl)-3-(1H-pyrrolo[2,3-b]pyridin-2-yl)-1H-pyrazolo[3,4-b]pyridine]: the EC50 in assay [1] was > 10 µM; in assay [2], 0.529 µM; in assay [3], 0.121 µM. In assay [1], the inhibition at 10 µM turned out to be 5.8%.

With `O=C(CC1CCNCC1)Nc1cncc(-c2cnc3[nH]nc(-c4cc5c(-c6ccncc6)ccnc5[nH]4)c3c2)c1` [Compound 577], the EC50 in assay [1] is > 10 µM; in assay [2], 1.41 µM; in assay [3] it was > 10 µM. For the same compound, the inhibition at 10 µM is 8.7% in assay [1] and 0% in assay [3].

Consider `Fc1cccc(-c2ccnc3[nH]c(-c4n[nH]c5ncc(-c6ccccn6)cc45)cc23)c1` [Compound 28, 3-(4-(3-Fluorophenyl)-1H-pyrrolo[2,3-b]pyridin-2-yl)-5-(pyridin-2-yl)-1H-pyrazolo[3,4-b]pyridine], for which the EC50 in assay [1], in assay [2] and in assay [3] was > 10 µM each time. The inhibition at 10 µM in assay [1] stood at 16.3%; in assay [2] it was 52%; in assay [3], 49.5%.

The values above are taken from patent US10285983B2, “3-(1H-pyrrolo[2,3-B]pyridin-2-yl)-1H-pyrazolo[3,4-B] pyridines and therapeutic uses thereof” (Samumed, LLC, priority 2015, dated 2019).
